In patent US12338198B2, “Cancer cell growth inhibiting composition and processed food” (HAGIHARA FARM PRODUCTION INSTITUTE CO., LTD., priority 2019, dated 2025):
pIC50: −log10 of the molar value.

Test system: Jurkat cells
Assay: Effect of compounds on growth of human leukemic T-cell line Jurkat cells (Trypan Blue live cell count)
Type: cell-based
Settings: for pIC50: Homo sapiens, growth of Jurkat cells, viable cell count; for cancer cell growth inhibiting effect compared with phytol: Jurkat cells, 24-72 hours
Method: Human leukemic T-cell line Jurkat cells were obtained from the RIKEN BioResource Research Center (Tsukuba-shi, Ibaraki Prefecture). The cells were cultured in RPMI1640 medium (Wako Pure Chemical Industries, Ltd., Osaka-shi, Osaka Prefecture) containing 10% fetal bovine serum (Thermo Fisher Scientifics, K.K., MA, USA), 100 U/mL penicillin and 100 μg/mL spletomycin (both Life Technologies, Carlsbad, CA, USA) at 37° C. in a 95% air-5% CO2 environment.
Jurkat cells were adjusted to 1×10^5 cells/mL and seeded in 24-well multi-plates (Thermo Fisher Scientifics K. K.) by 500 μL/well. After seeding, phytol, aminophytol, amidophytol, methylaminophytol, hexylaminophytol, and acetamidophytol were adjusted with distilled water to a final concentration of 10 μM, 25 μM, and 50 μM respectively, and then added. Note that no compound is added to a control. After adding respective compounds, the cells were stained with Tripan Blue (Life Technologies) after 24, 48, and 72 hours, and live cells were counted using a hemocytometer.
A horizontal axis represents culture time (hours) and a vertical axis represents the number of viable cells (×10^5 cells/mL). “Cont” in the figures represents the control, and “10 μM,” “25 μM,” and “50 μM” represent concentration. FIG. 1 is for phytol; FIG. 2 is for aminophytol; FIG. 3 is for amidophytol; FIG. 4 is for monomethylaminophytol; FIG. 5 is for monohexylaminophytol; and FIG. 6 is for acetamidophytol.

[1] = after 24 hours at a concentration of 25 μM

| SMILES | pIC50 | cancer cell growth inhibiting effect compared with phytol (10, 25, 50 μM) | viable cells [1] | viable cells (at a concentration of 25 μM) | viable cells (at a concentration of 50 μM) | growth of Jurkat cells (cancerous cells) (10, 25, 50 μM, 24, 48, 72 hours, concentration-dependence observed) | viable cells (after 72 hours at a concentration of 50 μM) |
| --- | --- | --- | --- | --- | --- | --- | --- |
| C/C(=C\CN)CCC[C@H](C)CCC[C@H](C)CCCC(C)C (racemic) [aminophytol, (E)-3,7,11,15-tetramethylhexadec-2-en-1-amine] | 5.42 | more effect than phytol | few cells survived |  |  |  |  |
| CC(=O)NC/C=C(\C)CCC[C@H](C)CCC[C@H](C)CCCC(C)C (racemic) [acetamidophytol, (E)-N-(3,7,11,15-tetramethylhexadec-2-en-1-yl)acetamide] | 4.67 | more effect than phytol |  | viable cells could still be identified | few cells survived |  |  |
| CCCCCCNC/C=C(\C)CCC[C@H](C)CCC[C@H](C)CCCC(C)C (racemic) [monohexylaminophytol, (E)-N-hexyl-3,7,11,15-tetramethylhexadec-2-en-1-amine] | 5.07 | more effect than phytol | few cells survived |  |  |  |  |

More lines, main results first:

| pIC50 | SMILES | cancer cell growth inhibiting effect compared with phytol (10, 25, 50 μM) | viable cells [1] | viable cells (at a concentration of 25 μM) | viable cells (at a concentration of 50 μM) | growth of Jurkat cells (cancerous cells) (10, 25, 50 μM, 24, 48, 72 hours, concentration-dependence observed) | viable cells (after 72 hours at a concentration of 50 μM) |
| --- | --- | --- | --- | --- | --- | --- | --- |
| 5.18 | CNC/C=C(\C)CCC[C@H](C)CCC[C@H](C)CCCC(C)C (racemic) [monomethylaminophytol, (E)-N,3,7,11,15-pentamethylhexadec-2-en-1-amine] | more effect than phytol | few cells survived |  |  |  |  |
| 5.02 | C/C(=C\C(N)=O)CCC[C@H](C)CCC[C@H](C)CCCC(C)C (racemic) [amidophytol, (E)-3,7,11,15-tetramethylhexadec-2-enamide] | more effect than phytol | few cells survived |  |  |  |  |
| 4.53 | C/C(=C\CO)CCC[C@H](C)CCC[C@H](C)CCCC(C)C [phytol, reference compound] |  |  |  |  | inhibited the growth | viable cells could still be identified |
